According to US12528791B2 (priority 2019, dated 2026):

Experiments:
THR-β/RXR-α = biological target: T1, THR-β/RXR-α (Homo sapiens, UniProt P10828); type: biochemical; settings: RXR heterodimer assay; compound activity normalized to T3 for THR-β/RXR-α and THR-α/RXR-α
T1 sequence (P10828 202-461 limits assumed): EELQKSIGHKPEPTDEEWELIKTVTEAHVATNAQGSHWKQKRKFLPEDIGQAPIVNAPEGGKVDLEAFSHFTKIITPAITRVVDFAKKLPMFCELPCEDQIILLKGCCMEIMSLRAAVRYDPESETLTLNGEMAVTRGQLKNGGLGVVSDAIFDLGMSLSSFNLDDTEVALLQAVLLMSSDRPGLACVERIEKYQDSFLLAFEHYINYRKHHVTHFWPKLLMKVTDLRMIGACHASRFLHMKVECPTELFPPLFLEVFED
T1 sequence (P19793 225-462 partner limits assumed): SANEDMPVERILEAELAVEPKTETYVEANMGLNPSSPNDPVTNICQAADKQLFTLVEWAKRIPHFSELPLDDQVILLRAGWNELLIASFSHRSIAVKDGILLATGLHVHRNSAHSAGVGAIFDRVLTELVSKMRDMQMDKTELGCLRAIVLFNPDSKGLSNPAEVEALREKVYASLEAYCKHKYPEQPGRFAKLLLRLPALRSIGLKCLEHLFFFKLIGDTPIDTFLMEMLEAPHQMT
T1 sequence (Q15596 679-703 partner limits assumed): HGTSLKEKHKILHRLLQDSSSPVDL

TR beta-LBD = biological target: T2, TR beta-LBD (Homo sapiens, UniProt P10828); type: biochemical; settings: TR-FRET assay; THR beta over THR alpha, derived from T3-selectivity normalized data
T2 sequence (P10828 217-461 limits assumed): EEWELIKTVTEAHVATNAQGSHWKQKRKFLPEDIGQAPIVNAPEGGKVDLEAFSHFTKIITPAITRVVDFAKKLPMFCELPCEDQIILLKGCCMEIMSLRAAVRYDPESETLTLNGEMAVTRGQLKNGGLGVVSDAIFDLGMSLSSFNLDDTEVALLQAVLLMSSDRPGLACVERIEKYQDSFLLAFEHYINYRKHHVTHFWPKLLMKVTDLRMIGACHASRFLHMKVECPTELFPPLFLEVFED

Compound	THRβ-Selectivity (THR-β/RXR-α)	THRβ-Selectivity (TR beta-LBD)
CCc1n[nH]c2ccc(Oc3c(Cl)cc(-c4n[nH]c(=O)[nH]c4=O)cc3Cl)cc12 [Example 2, 6-(3,5-dichloro-4-((3-ethyl-1H-indazol-5-yl)oxy)phenyl)-1,2,4-triazine-3,5(2H,4H)-dione]	3.6	28.0
Cc1n[nH]c2ccc(Oc3c(Cl)cc(NC(=O)c4noc(=O)[nH]4)cc3Cl)cc12 [Example 4, N-(3,5-dichloro-4-((3-methyl-1H-indazol-5-yl)oxy)phenyl)-5-oxo-4,5-dihydro-1,2,4-oxadiazole-3-carboxamide]	6.6	18.8
Cc1n[nH]c2ncc(Oc3c(Cl)cc(-n4nc(C#N)c(=O)[nH]c4=O)cc3Cl)cc12 [Example 7, 2-(3,5-dichloro-4-((3-methyl-1H-pyrazolo[3,4-b]pyridin-5-yl)oxy)phenyl)-3,5-dioxo-2,3,4,5-tetrahydro-1,2,4-triazine-6-carbonitrile]	9.7	9.5
Cc1n[nH]c2ccc(Oc3c(Cl)cc(-n4nc(C#N)c(=O)[nH]c4=O)cc3Cl)cc12 [Example 3, 2-(3,5-dichloro-4-((3-methyl-1H-indazol-5-yl)oxy)phenyl)-3,5-dioxo-2,3,4,5-tetrahydro-1,2,4-triazine-6-carbonitrile]	8.5	32.0
N#Cc1nn(-c2cc(Cl)c(Oc3ccc4ncccc4c3)c(Cl)c2)c(=O)[nH]c1=O [Example 13, 2-(3,5-dichloro-4-(quinolin-6-yloxy)phenyl)-3,5-dioxo-2,3,4,5-tetrahydro-1,2,4-triazine-6-carbonitrile]	5.5	3.7
Cc1cnc2ccc(Oc3c(Cl)cc(-n4nc(C#N)c(=O)[nH]c4=O)cc3Cl)cc2c1 [Example 16, 2-(3,5-dichloro-4-((3-methylquinolin-6-yl)oxy)phenyl)-3,5-dioxo-2,3,4,5-tetrahydro-1,2,4-triazine-6-carbonitrile]	7.1	68.1
Cn1cnc2cnc(Oc3c(Cl)cc(NC(=O)c4noc(=O)[nH]4)cc3Cl)cc21 [Example 11, N-(3,5-dichloro-4-((1-methyl-1H-imidazo[4,5-c]pyridin-6-yl)oxy)phenyl)-5-oxo-4,5-dihydro-1,2,4-oxadiazole-3-carboxamide]	10.4	>30.5
Cc1ccnc2ccc(Oc3c(Cl)cc(-n4nc(C#N)c(=O)[nH]c4=O)cc3Cl)cc12 [Example 15, 2-(3,5-dichloro-4-((4-methylquinolin-6-yl)oxy)phenyl)-3,5-dioxo-2,3,4,5-tetrahydro-1,2,4-triazine-6-carbonitrile]	15.4	15.9
Cn1cc2cc(Oc3c(Cl)cc(-n4nc(C#N)c(=O)[nH]c4=O)cc3Cl)ccc2n1 [Example 17, 2-(3,5-dichloro-4-((2-methyl-2H-indazol-5-yl)oxy)phenyl)-3,5-dioxo-2,3,4,5-tetrahydro-1,2,4-triazine-6-carbonitrile]	6.3	2.2
